From US20240360134A1, “PYRAZOLOPYRIMIDINES AND THEIR USES AS PDGFR INHIBITORS” (priority 2021, published 2024)

How the values were obtained:
[1] = molecular target: Tb-labeled inactive PDGFRβ (Homo sapiens (Human), UniProt P09619); experiment: biochemical; type: binding; details: read-out: PDGFR Lantha IC50
[2] = molecular target: His6-TEV-PDGFRβ (557-1016) (Homo sapiens (Human), UniProt P09619); experiment: PDGFRβ HTRF Assay; type: biochemical; details: 800 μM ATP, 0.5 μM TK-substrate biotin peptide, 30 min pre-incubation, 3 hours reaction; read-out: PDGFR HTRF IC50
[3] = molecular target: PDGFRβ (Rattus norvegicus (Rat), UniProt Q05030); experiment: PDGFRβ Cellular Assay (PDGFRb P-Y751 HTRF, PDGF-BB stimulated A10 cells); type: cell-based; details: A10 cells, 3 hours compound, 15 ng/mL PDGFbb for 10 minutes; read-out: PDGFR Cellular IC50
Summary of the method: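 Rat A10 cells plated overnight were treated with compound for 3 h, stimulated with rat PDGF-BB (working stock 100 ng/mL in 10% FBS medium) for 10 min, then lysed.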

[4] = molecular target: VEGFR2, unphosphorylated (Homo sapiens (Human), UniProt P35968); experiment: VEGFR ADP GLO assay; type: biochemical; details: 5 nM VEGFR2, 1.2 mM ATP, 1 mg/mL Srctide, 180 min
Summary of the method: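 Unphosphorylated kinase (10 nM 2× solution) pre-incubated 30 min at RT with compounds (11-point, 3-fold, top 10 µM), then reacted 180 min with srctide and ATP (2×: 2 mg/mL, 2.4 mM) in HEPES pH 7.5 buffer. ADP read by luminescence. IC50 from 4-parameter fit, normalized to DMSO and 1 µM TAK-593.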

Sequence of His6-TEV-PDGFRβ (557-1016) (P09619 whole entry, looked up): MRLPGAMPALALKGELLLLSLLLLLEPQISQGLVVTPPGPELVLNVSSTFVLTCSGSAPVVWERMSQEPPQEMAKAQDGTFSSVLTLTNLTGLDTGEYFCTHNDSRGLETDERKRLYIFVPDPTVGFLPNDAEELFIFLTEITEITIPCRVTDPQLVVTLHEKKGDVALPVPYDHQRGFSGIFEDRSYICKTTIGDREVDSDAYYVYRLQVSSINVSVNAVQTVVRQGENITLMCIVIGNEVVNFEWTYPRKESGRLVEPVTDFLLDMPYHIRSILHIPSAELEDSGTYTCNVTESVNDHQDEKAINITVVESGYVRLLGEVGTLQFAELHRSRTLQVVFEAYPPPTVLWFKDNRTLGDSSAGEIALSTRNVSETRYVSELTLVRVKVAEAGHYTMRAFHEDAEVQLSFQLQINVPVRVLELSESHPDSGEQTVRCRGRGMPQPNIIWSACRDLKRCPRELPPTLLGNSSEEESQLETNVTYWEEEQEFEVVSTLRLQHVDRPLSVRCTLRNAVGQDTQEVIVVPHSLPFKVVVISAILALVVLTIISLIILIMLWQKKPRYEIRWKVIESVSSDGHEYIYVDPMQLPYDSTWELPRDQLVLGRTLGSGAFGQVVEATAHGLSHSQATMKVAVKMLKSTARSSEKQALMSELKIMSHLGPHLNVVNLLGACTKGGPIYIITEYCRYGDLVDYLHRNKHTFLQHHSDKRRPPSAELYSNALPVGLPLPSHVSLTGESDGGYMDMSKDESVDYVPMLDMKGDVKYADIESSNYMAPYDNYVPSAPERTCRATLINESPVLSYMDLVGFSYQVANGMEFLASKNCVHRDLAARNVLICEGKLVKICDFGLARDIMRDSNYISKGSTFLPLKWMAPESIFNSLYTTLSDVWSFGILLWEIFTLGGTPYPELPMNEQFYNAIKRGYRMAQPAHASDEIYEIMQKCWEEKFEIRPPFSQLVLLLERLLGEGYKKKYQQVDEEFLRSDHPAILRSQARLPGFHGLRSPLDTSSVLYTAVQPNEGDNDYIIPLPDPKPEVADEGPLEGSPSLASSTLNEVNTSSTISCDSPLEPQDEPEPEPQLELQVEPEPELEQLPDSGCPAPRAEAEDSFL
Sequence of Tb-labeled inactive PDGFRβ (P09619 whole entry, looked up): as above
Sequence of VEGFR2, unphosphorylated (P35968 whole entry, looked up): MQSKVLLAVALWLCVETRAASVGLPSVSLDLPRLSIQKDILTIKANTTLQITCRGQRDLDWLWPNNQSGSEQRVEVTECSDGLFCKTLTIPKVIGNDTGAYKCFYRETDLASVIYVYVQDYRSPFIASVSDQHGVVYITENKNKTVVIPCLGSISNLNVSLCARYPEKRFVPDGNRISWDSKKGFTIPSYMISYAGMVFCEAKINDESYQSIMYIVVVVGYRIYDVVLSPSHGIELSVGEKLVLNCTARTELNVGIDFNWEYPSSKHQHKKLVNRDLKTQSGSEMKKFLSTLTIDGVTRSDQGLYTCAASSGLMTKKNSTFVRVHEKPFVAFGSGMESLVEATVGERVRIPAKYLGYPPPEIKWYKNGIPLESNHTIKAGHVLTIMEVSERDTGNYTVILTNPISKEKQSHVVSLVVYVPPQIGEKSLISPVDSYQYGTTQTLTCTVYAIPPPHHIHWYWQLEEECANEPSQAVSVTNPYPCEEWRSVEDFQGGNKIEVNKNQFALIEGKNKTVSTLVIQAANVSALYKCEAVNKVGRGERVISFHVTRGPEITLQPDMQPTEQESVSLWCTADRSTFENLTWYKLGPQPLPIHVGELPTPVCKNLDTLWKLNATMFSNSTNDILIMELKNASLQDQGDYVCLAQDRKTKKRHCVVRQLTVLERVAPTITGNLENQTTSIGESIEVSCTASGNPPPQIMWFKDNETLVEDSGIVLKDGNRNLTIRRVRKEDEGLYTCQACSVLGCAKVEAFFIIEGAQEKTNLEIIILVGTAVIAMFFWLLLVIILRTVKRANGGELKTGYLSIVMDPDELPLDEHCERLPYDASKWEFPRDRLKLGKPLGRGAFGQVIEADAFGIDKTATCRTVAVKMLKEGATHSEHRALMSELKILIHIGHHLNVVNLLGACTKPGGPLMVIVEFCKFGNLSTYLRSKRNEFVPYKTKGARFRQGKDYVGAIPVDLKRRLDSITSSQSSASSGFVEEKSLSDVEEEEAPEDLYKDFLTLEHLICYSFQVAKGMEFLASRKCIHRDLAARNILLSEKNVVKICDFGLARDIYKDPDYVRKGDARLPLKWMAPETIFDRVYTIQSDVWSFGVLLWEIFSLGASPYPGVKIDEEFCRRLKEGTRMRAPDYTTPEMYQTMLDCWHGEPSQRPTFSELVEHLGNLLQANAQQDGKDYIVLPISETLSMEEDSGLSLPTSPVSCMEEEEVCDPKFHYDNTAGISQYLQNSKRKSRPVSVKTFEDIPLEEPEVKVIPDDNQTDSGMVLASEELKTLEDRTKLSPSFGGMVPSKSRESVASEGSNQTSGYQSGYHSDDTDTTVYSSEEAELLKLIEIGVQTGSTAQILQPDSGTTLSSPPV
Sequence of PDGFRβ (Q05030 whole entry, looked up): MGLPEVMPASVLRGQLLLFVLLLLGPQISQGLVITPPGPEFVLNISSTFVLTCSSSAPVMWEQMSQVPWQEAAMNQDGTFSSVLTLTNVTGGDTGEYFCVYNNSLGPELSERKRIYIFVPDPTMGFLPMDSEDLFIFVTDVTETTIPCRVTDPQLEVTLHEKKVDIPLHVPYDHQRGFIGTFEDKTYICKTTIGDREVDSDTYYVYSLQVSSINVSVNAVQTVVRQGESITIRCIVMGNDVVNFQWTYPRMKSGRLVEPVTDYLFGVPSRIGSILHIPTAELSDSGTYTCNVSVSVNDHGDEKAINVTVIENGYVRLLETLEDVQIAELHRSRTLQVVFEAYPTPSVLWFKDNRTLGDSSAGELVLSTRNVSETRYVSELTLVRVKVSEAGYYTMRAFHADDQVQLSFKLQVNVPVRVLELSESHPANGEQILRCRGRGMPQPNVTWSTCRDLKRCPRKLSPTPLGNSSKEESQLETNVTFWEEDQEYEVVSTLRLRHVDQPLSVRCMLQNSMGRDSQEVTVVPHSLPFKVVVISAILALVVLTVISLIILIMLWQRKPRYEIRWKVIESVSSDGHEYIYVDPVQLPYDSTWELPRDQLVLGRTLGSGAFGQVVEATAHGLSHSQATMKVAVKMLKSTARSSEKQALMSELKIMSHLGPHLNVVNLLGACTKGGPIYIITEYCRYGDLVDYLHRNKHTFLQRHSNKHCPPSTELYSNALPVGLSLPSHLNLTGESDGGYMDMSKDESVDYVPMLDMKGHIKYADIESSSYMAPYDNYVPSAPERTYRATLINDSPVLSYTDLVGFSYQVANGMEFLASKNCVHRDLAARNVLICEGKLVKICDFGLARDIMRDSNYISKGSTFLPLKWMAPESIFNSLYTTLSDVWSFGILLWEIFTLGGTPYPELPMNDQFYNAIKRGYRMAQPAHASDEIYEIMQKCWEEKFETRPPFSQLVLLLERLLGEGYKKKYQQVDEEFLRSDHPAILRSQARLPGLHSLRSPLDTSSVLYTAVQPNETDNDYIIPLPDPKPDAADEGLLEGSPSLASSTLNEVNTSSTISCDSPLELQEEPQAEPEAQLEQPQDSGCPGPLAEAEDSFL

| SMILES | IC50 [1] | IC50 [2] | IC50 [3] | IC50 [4] |
| --- | --- | --- | --- | --- |
| Cc1ncc(NC(=O)CN2CCCC2)cc1Nc1nn(C)c2nc(Nc3cnn(C)c3)ncc12 [Example 138, N-(6-methyl-5-((1-methyl-6-((1-methyl-1H-pyrazol-4-yl)amino)-1H-pyrazolo[3,4-d]pyrimidin-3-yl)amino)pyridin-3-yl)-2-(pyrrolidin-1-yl)acetamide] | 2.1 nM | 0.24 nM | 3.2 nM | > 7.5 µM |
| Cc1ncc(NC(=O)CN2CC[C@H](C)C2)cc1Nc1nn(C)c2nc(Nc3cnn(C)c3)ncc12 [Example 140, (S)—N-(6-methyl-5-((1-methyl-6-((1-methyl-1H-pyrazol-4-yl)amino)-1H-pyrazolo[3,4-d]pyrimidin-3-yl)amino)pyridin-3-yl)-2-(3-methylpyrrolidin-1-yl)acetamide] | 1.6 nM | 0.23 nM | 2.2 nM | > 7.5 µM |
| Cc1ncc(NC(=O)CN2CCC[C@@H]2C)cc1Nc1nn(C)c2nc(Nc3cn(C)cn3)ncc12 [Example 142, (S)—N-(6-methyl-5-((1-methyl-6-((1-methyl-1H-imidazol-4-yl)amino)-1H-pyrazolo[3,4-d]pyrimidin-3-yl)amino)pyridin-3-yl)-2-(2-methylpyrrolidin-1-yl)acetamide] | 107 nM | 4.66 nM | 13.4 nM | > 7.5 µM |
| Cc1ncc(NC(=O)CN2CCC[C@@H]2C)cc1Nc1nn(C)c2nc(Nc3ccnn3C)ncc12 [Example 143, (S)—N-(6-methyl-5-((1-methyl-6-((1-methyl-1H-pyrazol-5-yl)amino)-1H-pyrazolo[3,4-d]pyrimidin-3-yl)amino)pyridin-3-yl)-2-(2-methylpyrrolidin-1-yl)acetamide] | 11.7 nM | 1.2 nM | 7.4 nM | > 7.5 µM |
| Cc1ncc(NC(=O)CN2CCC[C@@H]2C)cc1Nc1nn(C)c2nc(Nc3cnn(C4COC4)c3)ncc12 [Example 144, (S)—N-(6-methyl-5-((1-methyl-6-((1-(oxetan-3-yl)-1H-pyrazol-4-yl)amino)-1H-pyrazolo[3,4-d]pyrimidin-3-yl)amino)pyridin-3-yl)-2-(2-methylpyrrolidin-1-yl)acetamide] | 2.8 nM | 0.35 nM | 5.1 nM | > 7.5 µM |
| Cc1ncccc1Nc1ncc2c(Nc3cc(NC(=O)CN4CCC[C@@H]4C)cnc3C)nn(C)c2n1 [Example 145, (S)—N-(6-methyl-5-((1-methyl-6-((2-methylpyridin-3-yl)amino)-1H-pyrazolo[3,4-d]pyrimidin-3-yl)amino)pyridin-3-yl)-2-(2-methylpyrrolidin-1-yl)acetamide] | 15.3 nM | 1.59 nM | 8.7 nM | > 7.5 µM |
| COc1ncccc1Nc1ncc2c(Nc3cc(NC(=O)CN4CCC[C@@H]4C)cnc3C)nn(C)c2n1 [Example 146, (S)—N-(5-((6-((2-methoxypyridin-3-yl)amino)-1-methyl-1H-pyrazolo[3,4-d]pyrimidin-3-yl)amino)-6-methylpyridin-3-yl)-2-(2-methylpyrrolidin-1-yl)acetamide] | 19.7 nM | 2.33 nM | 14.1 nM | > 7.5 µM |
| COCCn1cc(Nc2ncc3c(Nc4cc(C(=O)NCCN5CCCC56CCC6)cnc4C)nn(C)c3n2)cn1 [Example 147, N-(2-(5-azaspiro[3.4]octan-5-yl)ethyl)-5-((6-((1-(2-methoxyethyl)-1H-pyrazol-4-yl)amino)-1-methyl-1H-pyrazolo[3,4-d]pyrimidin-3-yl)amino)-6-methylnicotinamide] | 2.1 nM | 0.38 nM | 14.7 nM | 2.67 µM |
| COCCn1cc(Nc2ncc3c(Nc4cc(C(=O)NCCN5CCCC5(C)C)cnc4C)nn(C)c3n2)cn1 [Example 148, N-(2-(2,2-dimethylpyrrolidin-1-yl)ethyl)-5-((6-((1-(2-methoxyethyl)-1H-pyrazol-4-yl)amino)-1-methyl-1H-pyrazolo[3,4-d]pyrimidin-3-yl)amino)-6-methylnicotinamide] | 4.3 nM | 0.74 nM | 64.9 nM | > 7.5 µM |
| Cc1ncc(C(=O)NCCN2CCC23CCC3)cc1Nc1nn(C)c2nc(Nc3cnn(C)c3)ncc12 [Example 149, N-(2-(1-azaspiro[3.3]heptan-1-yl)ethyl)-6-methyl-5-((1-methyl-6-((1-methyl-1H-pyrazol-4-yl)amino)-1H-pyrazolo [3,4-d]pyrimidin-3-yl)amino)nicotinamide] | 2.2 nM | 0.36 nM | 25.4 nM | 6.56 µM |
| Cc1ncc(C(=O)NCCN2CCCCC23CC3)cc1Nc1nn(C)c2nc(Nc3cnn(C)c3)ncc12 [Example 150, N-(2-(4-azaspiro[2.5]octan-4-yl)ethyl)-6-methyl-5-((1-methyl-6-((1-methyl-1H-pyrazol-4-yl)amino)-1H-pyrazolo[3,4-d]pyrimidin-3-yl)amino)nicotinamide] | 1.2 nM | 0.3 nM | 4.3 nM | 1.55 µM |
| Cc1ncc(C(=O)NCCN2CCCC23CCC3)cc1Nc1nn(C)c2nc(Nc3cnn(C)c3)ncc12 [Example 151, N-(2-(5-azaspiro[3.4]octan-5-yl)ethyl)-6-methyl-5-((1-methyl-6-((1-methyl-1H-pyrazol-4-yl)amino)-1H-pyrazolo[3,4-d]pyrimidin-3-yl)amino)nicotinamide] | 1.7 nM | 0.29 nM | 4.8 nM | 2.96 µM |
| Cc1ncc(C(=O)NCCN(CCF)C2CCCC2)cc1Nc1nn(C)c2nc(Nc3cnn(C)c3)ncc12 [Example 152, N-(2-(cyclopentyl(2-fluoroethyl)amino)ethyl)-6-methyl-5-((1-methyl-6-((1-methyl-1H-pyrazol-4-yl)amino)-1H-pyrazolo[3,4-d]pyrimidin-3-yl)amino)nicotinamide] | 3.4 nM | 0.45 nM | 7.4 nM | 2.53 µM |
| Cc1ncc(C(=O)NCCN2C3CCC2CC3)cc1Nc1nn(C)c2nc(Nc3cnn(C)c3)ncc12 [Example 153, N-(2-(7-azabicyclo[2.2.1]heptan-7-yl)ethyl)-6-methyl-5-((1-methyl-6-((1-methyl-1H-pyrazol-4-yl)amino)-1H-pyrazolo[3,4-d]pyrimidin-3-yl)amino)nicotinamide] | 1.3 nM | 0.26 nM | 113 nM | > 7.5 µM |
| Cc1nn(C)cc1Nc1ncc2c(Nc3cc(C(=O)NCCN4CCC5(CC5)C4)cnc3C)nn(C)c2n1 [Example 154, N-(2-(5-azaspiro[2.4]heptan-5-yl)ethyl)-5-((6-((1,3-dimethyl-1H-pyrazol-4-yl)amino)-1-methyl-1H-pyrazolo[3,4-d]pyrimidin-3-yl)amino)-6-methylnicotinamide] | 12 nM | 1.41 nM | 120 nM | > 7.5 µM |
| Cc1ncc(C(=O)NCCN2CCC[C@@H]2C)cc1Nc1nn(C)c2nc(Nc3cnn(C)c3C)ncc12 [Example 155, (S)-5-((6-((1,5-dimethyl-1H-pyrazol-4-yl)amino)-1-methyl-1H-pyrazolo[3,4-d]pyrimidin-3-yl)amino)-6-methyl-N-(2-(2-methylpyrrolidin-1-yl)ethyl)nicotinamide] | 15.5 nM | 1.98 nM | 169 nM | > 7.5 µM |
| Cc1ncc(C(=O)NCCN2CCCC2(C)C)cc1Nc1nn(C)c2nc(Nc3cnn(C)c3C)ncc12 [Example 156, 5-((6-((1,5-dimethyl-1H-pyrazol-4-yl)amino)-1-methyl-1H-pyrazolo[3,4-d]pyrimidin-3-yl)amino)-N-(2-(2,2-dimethylpyrrolidin-1-yl)ethyl)-6-methylnicotinamide] | 20.2 nM | 2.15 nM | 19.7 nM | > 7.5 µM |
| Cc1ncc(C(=O)NCCN2CCCC2(C)C)cc1Nc1nn(C)c2nc(Nc3ccnn3C)ncc12 [Example 157, N-(2-(2,2-dimethylpyrrolidin-1-yl)ethyl)-6-methyl-5-((1-methyl-6-((1-methyl-1H-pyrazol-5-yl)amino)-1H-pyrazolo[3,4-d]pyrimidin-3-yl)amino)nicotinamide] | 32.9 nM | 3.39 nM | 110 nM | > 7.5 µM |
| Cc1cc(Nc2ncc3c(Nc4cc(C(=O)NCCN5CCC[C@@H]5C)cnc4C)nn(C)c3n2)n(C)n1 [Example 158, (S)-5-((6-((1,3-dimethyl-1H-pyrazol-5-yl)amino)-1-methyl-1H-pyrazolo[3,4-d]pyrimidin-3-yl)amino)-6-methyl-N-(2-(2-methylpyrrolidin-1-yl)ethyl)nicotinamide] | 22.3 nM | 2.63 nM | 147 nM | > 7.5 µM |
| Cc1nn(C)cc1Nc1ncc2c(Nc3cc(C(=O)NCCN4CCC(C)(C)C4)cnc3C)nn(C)c2n1 [Example 159, 5-((6-((1,3-dimethyl-1H-pyrazol-4-yl)amino)-1-methyl-1H-pyrazolo[3,4-d]pyrimidin-3-yl)amino)-N-(2-(3,3-dimethylpyrrolidin-1-yl)ethyl)-6-methylnicotinamide] | 13.3 nM | 1.5 nM | 60.7 nM | > 7.5 µM |
